Where “and” joins values, the source holds several entries; their conditions need not be identical. Equal values may be shown once. Read-outs that look alike come from different tables or passages of the source.
Columns and labels:
[1] = target: SARS-CoV-2 NSP3 macrodomain (Mac1), P43 crystal form (Severe acute respiratory syndrome coronavirus 2, UniProt P0DTD1); format: binding; conditions: for PanDDA run, DMSO background map: 1-BDC: event 1; for 1-BDC: PanDDA background density correction; for Total number of conformations: ligand conformations modeled in Mac1 crystal structure; for 2*(1-BDC) (%): occupancy estimate from PanDDA BDC; for X-ray crystallography: Binding site: site where the ligand is bound in the X-ray crystal structure
[2] = target: SARS-CoV-2 NSP3 macrodomain (Mac1) (Severe acute respiratory syndrome coronavirus 2, UniProt P0DTD1); assay: biochemical; format: binding; conditions: for SARS CoV-2 macrodomain HTRF assay: Hillslope: dose-response fit
[3] = crystal soak concentration 10 mM, DMSO background map
[4] = crystal soak concentration 10 mM, P43 crystals
[5] = crystal soak 10 mM, DMSO background map

| SMILES | Occupancy difference (refined_occupancy - 2*(1-BDC)) [1] | Refined ligand occupancy (%) [1] [%] | PanDDA run, DMSO background map: 1-BDC ([1]; DMSO background map) | 1-BDC [1] | Total number of conformations [1] | 2*(1-BDC) (%) [1] [%] | X-ray crystallography: Binding site [1] | Hill slope ([2]; HTRF dose-response fit, Mac1) | SARS CoV-2 macrodomain HTRF assay: Hillslope [2] | PanDDA run, DMSO background map: 1-BDC [1, 3] | Pandda run, overall: Hit [1, 4] | Pandda run, overall: Modeling comment [1, 4] | PanDDA run, DMSO background map: Hit [1, 3] | further results |
| --- | --- | --- | --- | --- | --- | --- | --- | --- | --- | --- | --- | --- | --- | --- |
| OC1(CNc2ncnc3[nH]ccc23)CCSCC1 [AVI-4319] | 0 | 32 | 0.16 and 0.17 | 0.16 | 1 | 32 | Adenosine | 1.2 | 1.2 |  |  |  |  |  |
| OC1(CNc2ncnc3[nH]ccc23)CC2CCC1CC2 (centres unmarked) [AVI-4320] | 0 | 28 | 0.14 | 0.14 | 1 | 28 | Adenosine | 1.1 | 1.1 |  |  |  |  |  |
| OC1(CNc2ncnc3[nH]ccc23)CCCSC1 (centres unmarked) [AVI-4322] | 0 | 42 | 0.21 | 0.21 | 1 | 42 | Adenosine | 1.3 | 1.3 |  |  |  |  |  |
| Cc1c[nH]c2ncnc(NCC3(O)CCC(O)CC3)c12 (centres unmarked) [AVI-4329] | 12 | 30 |  | 0.09 | 2 | 18 | Adenosine |  |  | 0.09 and 0.11 | TRUE | Duplicate, not modeled | TRUE | Pandda run, overall: Modeled [1, 4]: TRUE; PanDDA run, DMSO background map: Modeled [1, 3]: TRUE; IC50 ([2]; dose-response, read-out: SARS CoV-2 macrodomain HTRF assay: IC50): > 1000 µM |
| Cc1c[nH]c2ncnc(NCC3(O)CCC(C)(C)CC3)c12 [AVI-4330] |  |  |  |  |  |  |  | 1.3 | 1.3 | 0.11 | TRUE | Weak density, not modeled | TRUE |  |
| Cc1c[nH]c2ncnc(NCC3(O)CCC(C)CC3)c12 (centres unmarked) [AVI-4331] | 0 | 54 |  | 0.27 | 1 | 54 | Adenosine | 1.2 | 1.2 | 0.23 | TRUE | Duplicate, not modeled | TRUE | Pandda run, overall: Hit ([1]; crystal soak 10 mM, P43 crystals, TRUE = ligand identified by PanDDA): TRUE; PanDDA run, DMSO background map: Hit [1, 5]: TRUE; PanDDA run, DMSO background map: 1-BDC [1, 5]: 0.27 |
| CC(C)(CO)Nc1ncnc2[nH]ccc12 [AVI-5266] | 16 | 40 | 0.12 | 0.12 | 1 | 24 |  | 1.1 |  |  |  |  |  | X-ray crystal structure ([1]; X-ray crystal structure determined (TRUE)): TRUE; Binding site ([1]; site of ligand in X-ray crystal structure): Adenosine; Hill slope ([2]; SARS CoV-2 macrodomain HTRF assay, dose-response): 1.1; inhibition at 200 µM ([2]; Single dose, concentration 200 μM, read-out: Average % competition): 56%; inhibition at 200 µM ([2]; preliminary screen, compound at 200 μM, mean of 3-4 technical replicates, read-out: % competition in HTRF assay): 56% |
| CC1(C)CCN(c2ncnc3[nH]ccc23)C(CO)C1 (centres unmarked) [AVI-5994] | 0 | 46 | 0.23 and 0.27 | 0.23 | 2 | 46 | Adenosine | 1.2 | 1.2 |  |  |  |  | Comment ([1]; comment on ligand modeling / Phe132 loop density): Weak density for open state of Phe132 loop |
| O[C@H]1CC[C@H]2CCN(c3ncnc4[nH]ccc34)[C@H]21 [AVI-5997] | 12 | 70 | 0.28 and 0.29 | 0.29 | 1 | 58 | Adenosine | 1.2 | 1.2 |  |  |  |  |  |
| OCC1C=CCCN1c1ncnc2[nH]ccc12 (centres unmarked) [AVI-5998] | 0 | 38 | 0.21 and 0.19 | 0.19 | 1 | 38 | Adenosine | 1.2 | 1.2 |  |  |  |  |  |
